The values that follow come from PubChem BioAssay AID328 (DTP/NCI, 2004).

This test has as its system BDF1 mice, P388 leukemia ip, median survival T/C. Briefly: NCI In Vivo Anticancer Drug Screen. Data for tumor model P388 Leukemia (intraperitoneal) in B6D2F1 (BDF1) mice. To be noted: endpoint: median survival time, higher = longer survival. An outline of the steps: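 Read-out is survival of treated animals expressed relative to the vehicle group, as a T/C ratio.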
Where [1] appears, read: dose: 25.0 mg/kg/injection, schedule: Q01DX009 (ip), vehicle: water.
The mark [2] stands for this setting: dose: 50.0 mg/kg/injection, schedule: Q01DX009 (ip), vehicle: water.
Setting [3] is: dose: 6.25 mg/kg/injection, schedule: Q01DX009 (ip), vehicle: saline with Tween-80.
[4] abbreviates: dose: 50.0 mg/kg/injection, schedule: Q01DX009 (ip), vehicle: saline with Tween-80.
[5] abbreviates: dose: 100.0 mg/kg/injection, schedule: Q01DX009 (ip), vehicle: saline with Tween-80.
Where [6] appears, read: dose: 50.0 mg/kg/injection, schedule: Q04DX003 (ip), vehicle: saline with Tween-80.
The mark [7] stands for this setting: dose: 100.0 mg/kg/injection, schedule: Q04DX003 (ip), vehicle: saline with Tween-80.
[8] abbreviates: dose: 200.0 mg/kg/injection, schedule: Q01DX009 (ip), vehicle: saline with Tween-80.
Setting [9] is: dose: 200.0 mg/kg/injection, schedule: Q04DX003 (ip), vehicle: saline with Tween-80.
The mark [10] stands for this setting: dose: 400.0 mg/kg/injection, schedule: Q04DX003 (ip), vehicle: saline with Tween-80.
The mark [11] stands for this setting: dose: 100.0 mg/kg/injection, schedule: Q04DX003 (ip), vehicle: saline.
[12] abbreviates: dose: 200.0 mg/kg/injection, schedule: Q04DX003 (ip), vehicle: saline.
The mark [13] stands for this setting: dose: 400.0 mg/kg/injection, schedule: Q04DX003 (ip), vehicle: saline.

Values joined by “and” are separate entries in the source; they are usually repeats but may differ in a detail not shown here. Equal entries are not always repeated. Toxic doses and inconclusive results are not listed.

Consider `CS(=O)(=O)OCc1c(O)c2c(c(O)c1COS(C)(=O)=O)C(=O)C=CC2=O`, for which the T/C runs as follows: (dose: 3.12 mg/kg/injection, schedule: Q01DX009 (ip), vehicle: water) 103 % of control; (dose: 3.12 mg/kg/injection, schedule: Q04DX003 (ip), vehicle: water) 102 % of control; (dose: 6.25 mg/kg/injection, schedule: Q01DX009 (ip), vehicle: water) 114 % of control; (dose: 6.25 mg/kg/injection, schedule: Q04DX003 (ip), vehicle: water) 102 % of control; (dose: 12.5 mg/kg/injection, schedule: Q01DX009 (ip), vehicle: water) 106 % of control; (dose: 12.5 mg/kg/injection, schedule: Q04DX003 (ip), vehicle: water) 93 % of control. The T/C was 107 % of control under setting [1]; 101 % of control (dose: 25.0 mg/kg/injection, schedule: Q04DX003 (ip), vehicle: water); 116 % of control under setting [2]; 102 % of control (dose: 50.0 mg/kg/injection, schedule: Q04DX003 (ip), vehicle: water); 94 % of control (dose: 100.0 mg/kg/injection, schedule: Q01DX009 (ip), vehicle: water); 108 % of control and 109 % of control (dose: 100.0 mg/kg/injection, schedule: Q04DX003 (ip), vehicle: water).

In the case of `O=S(=O)(OCCCl)C(F)(F)F`, the T/C (dose: 1.56 mg/kg/injection, schedule: Q01DX009 (ip), vehicle: saline with Tween-80) was 119 % of control; the T/C (dose: 3.12 mg/kg/injection, schedule: Q01DX009 (ip), vehicle: saline with Tween-80) was 107 % of control; the T/C under setting [3] is 120 % of control.

As for `COC(=O)c1cccc(OP(=O)(N(C)C)N(C)C)c1`, the T/C is, setting by setting: under setting [4], 106 % of control; under setting [5], 114 % of control.

With `CCOC(=O)C1=S=C(SC)N(C)C1=O`, the T/C is 106 % of control and 115 % of control under setting [4]; 103 % of control and 116 % of control under setting [5].

For the compound `O=[N+]([O-])c1cccc(N2CN(c3ccccc3)NC(c3ccccc3)=N2)c1`, the T/C reads like this: (dose: 12.5 mg/kg/injection, schedule: Q04DX003 (ip), vehicle: saline with Tween-80) 100 % of control; (dose: 25.0 mg/kg/injection, schedule: Q04DX003 (ip), vehicle: saline with Tween-80) 96 % of control; under setting [6], 105 % of control.

As to `Cc1nn(C)c2ccc([N+](=O)[O-])cc12`, the T/C was 118 % of control (dose: 100.0 mg/kg/injection, schedule: Q01DX009 (ip), vehicle: Klucel (hydroxypropylcellulose) (HPC)); 104 % of control (dose: 200.0 mg/kg/injection, schedule: Q01DX009 (ip), vehicle: Klucel (hydroxypropylcellulose) (HPC)); 122 % of control (dose: 400.0 mg/kg/injection, schedule: Q01DX009 (ip), vehicle: Klucel (hydroxypropylcellulose) (HPC)).

For the compound `O=C(c1ccc(Cl)cc1)C1Cc2ccccc2C1=O` (stereo not drawn), the T/C under setting [5] was 91 % of control; the T/C under setting [7] was 91 % of control; the T/C under setting [8] was 91 % of control; the T/C under setting [9] is 121 % of control; the T/C (dose: 400.0 mg/kg/injection, schedule: Q01DX009 (ip), vehicle: saline with Tween-80) was 100 % of control; the T/C under setting [10] was 100 % of control.

As for `Cl`, the T/C runs as follows: (dose: 0.62 mg/kg/injection, schedule: Q01DX009 (ip), vehicle: water) 100 % of control; (dose: 1.25 mg/kg/injection, schedule: Q01DX009 (ip), vehicle: water) 90 % of control; (dose: 2.5 mg/kg/injection, schedule: Q01DX009 (ip), vehicle: water) 104 % of control; (dose: 5.0 mg/kg/injection, schedule: Q01DX009 (ip), vehicle: water) 95 % of control; (dose: 10.0 mg/kg/injection, schedule: Q01DX009 (ip), vehicle: water) 100 % of control; (dose: 20.0 mg/kg/injection, schedule: Q01DX009 (ip), vehicle: water) 100 % of control. The T/C by setting is: under setting [1], 90 % of control; under setting [2], 104 % of control.

As to `O=C(/C=C/c1ccc(OCc2ccccc2)cc1)c1ccccc1Cl`, the T/C by setting is: under setting [4], 96 % of control; under setting [5], 96 % of control.

Take `CCOC(=O)CCN1CCCC1`: the T/C was 100 % of control (dose: 100.0 mg/kg/injection, schedule: Q01DX009 (ip), vehicle: saline); 100 % of control under setting [11]; 91 % of control (dose: 200.0 mg/kg/injection, schedule: Q01DX009 (ip), vehicle: saline); 100 % of control under setting [12]; 100 % of control (dose: 400.0 mg/kg/injection, schedule: Q01DX009 (ip), vehicle: saline); 95 % of control under setting [13].

Regarding `CC(C)(C)OC(=O)NC(CCC(=O)O)(Cc1ccccc1)C(=O)NC(CCC(=O)OCc1ccccc1)C(=O)OCc1ccccc1` (stereo not drawn), the T/C (dose: 100.0 mg/kg/injection, schedule: Q01DX005 (ip), vehicle: saline with Tween-80) is 86 % of control and the T/C (dose: 200.0 mg/kg/injection, schedule: Q01DX005 (ip), vehicle: saline with Tween-80) was 86 % of control.

As for `O=[N+]([O-])c1ccc(NS(=O)(=O)c2cc(Cl)ccc2Cl)c(C(F)(F)F)c1`, the T/C runs as follows: under setting [4], 96 % of control; under setting [5], 100 % of control.

Turning to `Clc1ccc(-c2ccccc2)cc1Cl`, the T/C runs as follows: under setting [4], 115 % of control; under setting [5], 114 % of control; under setting [8], 118 % of control.

In the case of `N#C/C(=C\c1cc(Cl)cc(Cl)c1O)C(/C(C#N)=C/c1cc(Cl)cc(Cl)c1O)c1ccc2c(c1)OCO2` (stereo not drawn), the T/C runs as follows: under setting [7], 91 % of control; under setting [9], 100 % of control; under setting [10], 108 % of control.

In the case of `Cc1ncc(CO)c(CO)c1O`, the T/C was 122 % of control under setting [11], 113 % of control under setting [12] and 95 % of control under setting [13].

Regarding `Cc1cccc(C)c1NC(=S)N1CCC(CCCC2CCN(C(=S)Nc3c(C)cccc3C)CC2)CC1`, the T/C by setting is: under setting [4], 86 % of control; under setting [5], 90 % of control; under setting [8], 104 % of control.

With `O=NN(CCF)C(=O)NCCF`, the T/C is 120 % of control (dose: 0.25 mg/kg/injection, schedule: Q01DX009 (ip), vehicle: saline); 120 % of control (dose: 0.5 mg/kg/injection, schedule: Q04DX003 (ip), vehicle: saline); 150 % of control and 172 % of control (dose: 1.0 mg/kg/injection, schedule: Q01DX009 (ip), vehicle: saline); 104 % of control (dose: 1.0 mg/kg/injection, schedule: Q04DX003 (ip), vehicle: saline); 268 % of control (dose: 2.0 mg/kg/injection, schedule: Q01DX009 (ip), vehicle: saline); 175 % of control (dose: 2.0 mg/kg/injection, schedule: Q04DX003 (ip), vehicle: saline). The T/C reads like this: (dose: 3.3 mg/kg/injection, schedule: Q04DX003 (ip), vehicle: saline) 165 % of control; (dose: 5.0 mg/kg/injection, schedule: Q04DX003 (ip), vehicle: saline) 235 % of control; (dose: 7.5 mg/kg/injection, schedule: Q04DX003 (ip), vehicle: saline) 95 % of control; (dose: 10.0 mg/kg/injection, schedule: Q04DX003 (ip), vehicle: saline) 300 % of control; (dose: 20.0 mg/kg/injection, schedule: Q04DX003 (ip), vehicle: saline) 110 % of control.

Take `CC/C=N/NC(N)=S`: the T/C (dose: 3.13 mg/kg/injection, schedule: Q01DX009 (ip), vehicle: saline with Tween-80) is 94 % of control; the T/C under setting [3] was 94 % of control; the T/C (dose: 12.5 mg/kg/injection, schedule: Q01DX009 (ip), vehicle: saline with Tween-80) was 94 % of control.

In the case of `CC(=O)OCC1OC(O)C(NC(=O)C(F)(F)F)C(OC(C)=O)C1OC(C)=O` (stereo not drawn), the T/C (dose: 12.5 mg/kg/injection, schedule: Q04DX003 (ip), vehicle: saline) is 118 % of control; the T/C (dose: 12.5 mg/kg/injection, schedule: Q## X003 (ip), vehicle: saline) is 104 % of control; the T/C (dose: 25.0 mg/kg/injection, schedule: Q## X003 (ip), vehicle: saline) was 119 % of control.

Regarding `COC(CN(C)C(=O)NC1CCCCC1)OC`, the T/C is 95 % of control under setting [6], 100 % of control under setting [7] and 100 % of control under setting [9].
